Assay [1] deals with FaDu tumour xenograft. The assay can be described thus: In vivo clonogenic survival (CS-ER), FaDu tumour xenografts ± radiation. The following applies: Rag2M mice. On the procedure: FaDu tumour xenograft-bearing Rag2M mice were treated with single administrations of test compounds at indicated doses±radiation as indicated, at time 0.
Mice were irradiated at 1 h post compound administration (unless otherwise indicated), with 300 KV X-rays and a 10 mA current from a Precision XRAD 300 machine (USA) with a beam-hardening filter (2 mm Al+0.25 mm Cu+0.75 mm Sn) and an adjustable site to specimen distance (SSD) at a dose of 8-10 Gy, delivered at a rate of ˜1.05 Gy/min.
Mice were terminated at times after irradiation as indicated, and tumour tissues excised. A portion of tumour approximately 300-500 mg was briefly minced using sterile scissors and placed in a pre-weighed gentleMACS C tube (Miltenyi Biotec cat #130-093-237) and weighed with combined tumour+tube mass recorded. A 5 mL aliquot of enzyme cocktail comprising of trypsin/DNase/collagenase/EDTA-Na2 in PBS (1 mg/ml trypsin+0.26 mg/ml DNase+0.21 mg/ml collagenase+2 mM EDTA-Na2) was added to the tube, which is then run on the gentleMACS Dissociator disaggregation system. Tubes were then incubated at 37° C. and continually rotated for 20 min before again running on the gentleMACS Dissociator program. Samples were then diluted with 5 ml MEM medium containing 5% FBS and filtered (Falcon cell strainer 100 μm, cat #352360). After centrifugation (1100 rpm for 6 minutes at 4° C.) supernatant was aspirated and the cells resuspended in 4 ml cold growth medium (MEM+10% FBS)+50 ul DNase (5 mg/ml DNase solution). Cell numbers were counted from the same cell solution using a hemacytometer. Appropriate dilutions (control: 10,000 cells/ml; 8Gy: 400,000 cells/ml; drug+radiation treated; 500,000 cells/ml) were made and cells then plated in triplicate: control: 100 μl and 300 μl (1000 and 3000 cells/6 cm tissue culture plate); 8Gy: 30 μl, 105 μl and 350 μl (12000, 42000 cells/6 cm plates and 140000 cells/10 cm plate); drug+8Gy: 70 μl, 300 μl, 1.2 ml (35000 and 150000 cells/6 cm plates and 600000 cells/10 cm plates—only duplicate). Plates were incubated at 37° C. (in a 5% CO2, 5% O2 and balance N2 environment) for 14 days. For a final and accurate automated live-cell counting a solution of Hoechst33342 (0.01 mg/ml)+Propidium Iodide (0.004 mg/ml) in 0.9% saline was mixed with an appropriate cell number dilution of the samples in 96 well plates (50 ul staining solution+50 ul cell suspension of 10000 cells/ml) and images are taken of the wells and cell numbers are calculated by a computer program.
After 14 days plates were removed from the incubator, rinsed with PBS and stained with cold 2 g/L Malachite green oxalate salt solution (Sigma-Aldrich, cat #M6880) for 30 minutes at room temperature. Plates were rinsed with distilled water and dried. Pictures were obtained of the plates and colonies consisting of 50 or more cells were counted using a Stuart Scientific colony counter.
All plates with colonies were analyzed except when colony numbers were so high that the edges of individual colonies could not be determined accurately. Plating efficiency (PE) of each tumour sample was calculated first: PE is a ratio of the number of colonies to the number of cells seeded (sum of all the colonies countable in all the plates of the same sample divided by the sum of cells plated in the same plates). The PE of control tumours was averaged for the calculation of surviving fraction (SF): SF is based on the number of colonies formed in drug and/or radiation treated cells relative to that of untreated control (PE of treated tumor sample divided by PE of control). All treated data points were compared separately to the average of the controls. Finally, a Clonogenic Survival Enhancement Ratio (CS-ER) was calculated: the SF of irradiated control groups were divided by the SF of treatment groups to determine treatment group-specific CS-ER values, and these were assigned scores based on defined response ranges: values >6=A, 4-6=B, <4=C.

Assay [2] has as its system FaDu tumour xenograft. Put plainly: In vivo tumour growth delay (TGD-ER), FaDu tumour xenografts + radiation. Particulars: PO. The protocol: FaDu tumour xenograft-bearing animals were monitored for tumour growth and once average tumour size reached approximately 100-250 mm3, animals were assigned to treatment cohorts using stratified randomization. Animals were weighted and treated with doses of test compounds at 10, 30 or 100 mg/kg PO from 1, 3 or 10 mg/mL formulations at time 0.
For BID dosing regimens, at 8 h following the first injection, animals were again administered with test compound at the same dose as their previous administration. Animals were weighed and had tumours measured using calipers three times weekly until the endpoint of maximum tumour volume, 1000 mm3, was reached and animals were euthanized. Tumour volumes were calculated according to the equation L×W^2/2 with the length (mm) being the longer axis of the tumour; in the case that no tumour was palpable, tumour volumes were recorded as 0 mm^3.
Data were calculated as tumour growth normalized to day 0 measurements, with time to tumour doubling determined. Average time to tumour doubling for each group was used to determine a Tumour Growth Delay Enhancement Ratio (TGD-ER): the time to doubling for treatment groups were divided by the time to doubling for irradiation-alone groups to determine group-specific TGD-ER values, and these were assigned scores based on defined response ranges: values >2.5=A, 1-2.5=B, <1=C.

Molecules are shown by their SMILES.

This is an account of results in US20240246960A1 (adMare Therapeutics Society, priority 2021, published 2024).

Take `O=C(N[C@H]1CC[C@@H](Oc2nc(N3CCOCC3)cc3ncccc23)CC1)c1ccnnc1` [Compound 121, N-((1s,4s)-4-((7-morpholino-1,6-naphthyridin-5-yl)oxy)cyclohexyl)pyridazine-4-carboxamide]: the “CS-ER Range Score” value in the assay with FaDu tumour xenograft [1] (30 mpk + 8 Gy, 4 h) was “C (<4=C)”.

Take `O=C(N[C@H]1CC[C@@H](Oc2nc(N3CCOCC3)cc3ncccc23)CC1)c1ccncc1` [Compound 113, N-((1s,4s)-4-((7-morpholino-1,6-naphthyridin-5-yl)oxy)cyclohexyl)isonicotinamide]: the “CS-ER Range Score” value is listed as “C (<4=C)” in the assay with FaDu tumour xenograft [1] (30 mpk + 8 Gy, 2 h) and “B (4-6=B)” with FaDu tumour xenograft [1] (30 mpk + 8 Gy, 4 h).

As for `COc1cnc(N[C@H]2CC[C@@H](Oc3nc(N4CCOCC4)cc4ncc(NS(C)(=O)=O)cc34)CC2)nc1` [Compound 203, N-(5-(((1s,4s)-4-((5-methoxypyrimidin-2-yl)amino)cyclohexyl)oxy)-7-morpholino-1,6-naphthyridin-3-yl)methanesulfonamide], the “CS-ER Range Score” value with FaDu tumour xenograft [1] (30 mpk + 8 Gy, 2 h) is “B (4-6=B)”; in the assay on FaDu tumour xenograft [1] (30 mpk + 8 Gy, 4 h), “B (4-6=B)”.

Take `O=C(N[C@H]1CC[C@@H](Oc2nc(N3CCOCC3)cc3ncccc23)CC1)c1cc[nH]c1` [Compound 140, N-((1s,4s)-4-((7-morpholino-1,6-naphthyridin-5-yl)oxy)cyclohexyl)-1H-pyrrole-3-carboxamide]: the “CS-ER Range Score” value with FaDu tumour xenograft [1] (30 mpk + 8 Gy, 4 h) was “B (4-6=B)”. Besides, the “TGD-ER Range Score” value with FaDu tumour xenograft [2] (30 mpk BID + 10 Gy) is recorded as “C (<1=C)”.

`O=C(N[C@H]1CC[C@@H](Oc2nc(N3CCOCC3)cc3ncccc23)CC1)c1c[nH]cn1` [Compound 144, N-((1s,4s)-4-((7-morpholino-1,6-naphthyridin-5-yl)oxy)cyclohexyl)-1H-imidazole-4-carboxamide]: the “CS-ER Range Score” value is given as “C (<4=C)” in the assay on FaDu tumour xenograft [1] (30 mpk + 8 Gy, 2 h) and “B (4-6=B)” with FaDu tumour xenograft [1] (30 mpk + 8 Gy, 4 h).

As to `CS(=O)(=O)Nc1cnc2cc(N3CCOCC3)nc(O[C@H]3CC[C@@H](Nc4ncccn4)CC3)c2c1` [Compound 185, N-(7-morpholino-5-(((1s,4s)-4-(pyrimidin-2-ylamino)cyclohexyl)oxy)-1,6-naphthyridin-3-yl)methanesulfonamide], the “CS-ER Range Score” value with FaDu tumour xenograft [1] (30 mpk + 8 Gy, 4 h) is reported as “B (4-6=B)”. In addition, the “TGD-ER Range Score” value in the assay on FaDu tumour xenograft [2] (10 mpk BID + 5 Gy), in the assay on FaDu tumour xenograft [2] (30 mpk BID + 5 Gy) and in the assay on FaDu tumour xenograft [2] (100 mpk BID + 5 Gy) was “B (1-2.5=B)” in each case.

As to `O=C(N[C@H]1CC[C@@H](Oc2nc(N3CCOCC3)cc3ncccc23)CC1)c1ncccn1` [Compound 123, N-((1s,4s)-4-((7-Morpholino-1,6-naphthyridin-5-yl)oxy)cyclohexyl)pyrimidine-2-carboxamide], the “CS-ER Range Score” value in the assay on FaDu tumour xenograft [1] (100 mpk + 10 Gy, 0.5 h) is “C (<4=C)”; in the assay on FaDu tumour xenograft [1] (100 mpk + 10 Gy, 4 h), “A (values >6=A)”; with FaDu tumour xenograft [1] (100 mpk + 10 Gy, 8 h) it was “A (values >6=A)”; with FaDu tumour xenograft [1] (100 mpk + 10 Gy, 24 h), “A (values >6=A)”. For the same compound, the “TGD-ER Range Score” value is listed as “B (1-2.5=B)” with FaDu tumour xenograft [2] (10 mpk + 10 Gy); “B (1-2.5=B)” with FaDu tumour xenograft [2] (30 mpk + 10 Gy); “A (values >2.5=A)” in the assay on FaDu tumour xenograft [2] (100 mpk + 10 Gy); “A (values >2.5=A)” with FaDu tumour xenograft [2] ((30 mpk + 2 Gy) Q5D); “C (<1=C)” in the assay with FaDu tumour xenograft [2] ((30 mpk) Q5D).

For the compound `O=C(N[C@H]1CC[C@@H](Oc2nc(N3CCOCC3)cc3ncccc23)CC1)c1ncco1` [Compound 142, N-((1s,4s)-4-((7-morpholino-1,6-naphthyridin-5-yl)oxy)cyclohexyl)oxazole-2-carboxamide], the “CS-ER Range Score” value is reported as “B (4-6=B)” with FaDu tumour xenograft [1] (30 mpk + 8 Gy, 2 h) and “B (4-6=B)” in the assay with FaDu tumour xenograft [1] (30 mpk + 8 Gy, 4 h).
